25 molecules from patent US20110312941A1, “1,4-DISUBSTITUTED PIPERIDINES AS VASOPRESSIN RECEPTOR VIA ANTAGONISTS” (VANTIA LIMITED, priority 2009, published 2011) can be followed below.

Each structure is given as a SMILES string.

This assay deals with T1, cloned human V1a receptor (Homo sapiens, UniProt P37288).
T1 construct: host or cells: human brain astrocytoma 1321N1 cells
Briefly: in vitro functional calcium mobilisation assay (FLIPR), antagonist activity, 1321N1 cells, 250 pM AVP. The format is cell-based. Conditions: functional pKi derived from pIC50 (Equation 1), FLIPR Ca2+ mobilisation, 1321N1 cells expressing cloned human V1a receptor, read-out: Mean fpKi (Human V1a) (converted). The procedure: The primary assay which may be used to determine the ability of the compounds of formula (1) to inhibit the vasopressin V1a receptor is an in vitro functional calcium mobilisation assay (FLIPR) that measures antagonist activity at a cloned human V1a receptor. The assay is described below.
The antagonist activity of compounds of formula (1) were determined in a Calcium (Ca2+) mobilisation assay using whole cells (human brain astrocytoma 1321N1 cells, ex Perkin Elmer) genetically modified to stably express a cloned human V1a receptor. Dose response curves were determined by displacement of a single concentration of agonist (250 pM AVP, ex Sigma) with increasing concentrations of compound. A pIC50 value is determined by non-linear regression to a 4-parameter logistic equation and a functional pKi (fpKi) derived using Equation 1.
where A=agonist single conc, and A50=the agonist EC50.
(Calcium assays in cells follow changes in intracellular calcium, usually with a dye or a luminescent sensor.)

T1 sequence (P37288 whole entry): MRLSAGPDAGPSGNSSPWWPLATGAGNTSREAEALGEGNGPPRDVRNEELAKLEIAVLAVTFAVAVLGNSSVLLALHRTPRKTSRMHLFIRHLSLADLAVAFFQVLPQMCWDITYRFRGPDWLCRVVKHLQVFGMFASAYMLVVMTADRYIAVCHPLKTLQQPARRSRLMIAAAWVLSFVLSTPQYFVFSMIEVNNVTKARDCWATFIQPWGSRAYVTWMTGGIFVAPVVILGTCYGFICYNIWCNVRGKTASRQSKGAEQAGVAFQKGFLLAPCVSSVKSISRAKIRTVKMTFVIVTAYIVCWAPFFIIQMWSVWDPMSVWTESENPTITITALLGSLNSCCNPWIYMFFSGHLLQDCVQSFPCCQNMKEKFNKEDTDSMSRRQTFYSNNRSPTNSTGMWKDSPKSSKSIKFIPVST

As for `Cc1ccc2c(c1)-c1[nH]c(N3CCOCC3)nc1CCN2C(=O)C1CCN(c2cccc(C)n2)CC1` [Example 63], the Ki was 1.86 nM. Turning to `O=C(C1CCN(c2ccncc2)CC1)N1Cc2cccn2Cc2ccccc21` [Example 147], the Ki is 1480 nM.

For the molecule `O=C(C1CCN(c2cccc([N+](=O)[O-])c2)CC1)N1Cc2cccn2Cc2ccccc21` [Example 173], the Ki is 17 nM. For `Cc1ccccc1N1CCC(C(=O)N2Cc3cccn3Cc3ccccc32)CC1` [Example 159] the value was 10.5 nM; for `O=C(C1CCN(c2ccccn2)CC1)N1Cc2cccn2Cc2ccccc21` [Example 144], 3.16 nM. For `Cn1ncc2c1Nc1cc(Cl)ccc1N(C(=O)C1CCN(c3ccc(C(F)(F)F)cc3)CC1)C2` [Example 140], the Ki was 8.51 nM. Turning to `Cc1ccnc(N2CCC(C(=O)N3CCc4nc(N5CCOCC5)[nH]c4-c4cc(C)ccc43)CC2)c1` [Example 32], the Ki is 1.58 nM. Consider `O=C(C1CCN(c2ccccc2)CC1)N1Cc2cccn2Cc2ccccc21` [Example 149], for which the Ki is 0.589 nM. With `CCc1cnc(N2CCC(C(=O)N3Cc4cnn(-c5ccccc5)c4Nc4cc(Cl)ccc43)CC2)nc1` [Example 105], the Ki was 13.8 nM.

On to `Cc1ccc2c(c1)Cn1cccc1CN2C(=O)C1CCN(c2ccccc2)CC1` [Example 153], for which the Ki was 0.234 nM. For `NCc1ccccc1N1CCC(C(=O)N2Cc3cccn3Cc3ccccc32)CC1` [Example 177, [1-(2-Aminomethyl-phenyl)-piperidin-4-yl]-(5H,11H-benzo[e]pyrrolo[1,2-a][1,4]diazepin-10-yl)-methanone] the value was 28.8 nM; for `Cc1ccnc(N2CCC(C(=O)N3Cc4cnn(C)c4Nc4cc(C)ccc43)CC2)c1` [Example 111], 2.4 nM; for `COc1ccc(N2CCC(C(=O)N3CCc4nc(C5CCOCC5)[nH]c4-c4cc(C)ccc43)CC2)nc1` [Example 42], 5.62 nM.

For the molecule `O=C(C1CCN(c2ccc(C(F)(F)F)cc2)CC1)N1Cc2cccn2Cc2ccccc21` [Example 169], the Ki is 30.9 nM. Consider `Cc1cccnc1N1CCC(C(=O)N2Cc3cnn(C)c3Nc3cc(Cl)ccc32)CC1` [Example 116], for which the Ki was 2.69 nM. On to `Cc1ccc(N2CCC(C(=O)N3CCc4nc(N5CCOCC5)[nH]c4-c4cc(C)ccc43)CC2)nc1` [Example 1, (9-Methyl-2-morpholin-4-yl-4,5-dihydro-1H-1,3,6-triaza-benzo[e]azulen-6-yl)-(5′-methyl-3,4,5,6-tetrahydro-2H-[1,2′]bipyridinyl-4-yl)-methanone], for which the Ki is 0.977 nM. As for `O=C(C1CCN(c2ccccn2)CC1)N1CCc2nc(-c3cccc(F)c3)[nH]c2-c2cc(Cl)ccc21` [Example 55], the Ki was 97.7 nM. For the molecule `CCn1ncc2c1Nc1cc(F)ccc1N(C(=O)C1CCN(c3ccc(C)cn3)CC1)C2` [Example 107], the Ki was 1.91 nM. For the molecule `Cc1cccc(N2CCC(C(=O)N3CCc4nc(N5CCOCC5)[nH]c4-c4ccccc43)CC2)n1` [Example 60], the Ki is 12.9 nM. With `O=C(C1CCN(c2ccccc2)CC1)N1CCc2nc(Cc3ccccc3)[nH]c2-c2cc(Cl)ccc21` [Example 82] the figure was 42.7 nM. With `Cc1ccc2c(c1)-c1[nH]c(N3CCOCC3)nc1CCN2C(=O)C1CCN(c2ncccc2C)CC1` [Example 2, (9-Methyl-2-morpholin-4-yl-4,5-dihydro-1H-1,3,6-triaza-benzo[e]azulen-6-yl)-(3′-methyl-3,4,5,6-tetrahydro-2H-[1,2′]bipyridinyl-4-yl)-methanone], the Ki was 1.45 nM.

For `Cc1cccc(N2CCC(C(=O)N3Cc4cnn(C)c4Nc4cc(C)ccc43)CC2)c1` [Example 128], the Ki was 1.32 nM. Take `O=C(C1CCN(c2ccccn2)CC1)N1CCc2nc(N3CCOCC3)[nH]c2-c2cc(Cl)ccc21` [Example 57]: the Ki is 2.51 nM. In the case of `Cc1ccnc(N2CCC(C(=O)N3CCc4nc(N5CCOCC5)[nH]c4-c4cc(F)ccc43)CC2)c1` [Example 15], the Ki was 1.95 nM. As to `Cn1ncc2c1Nc1cc(Cl)ccc1N(C(=O)C1CCN(c3ccccn3)CC1)C2` [Example 115], the Ki is 6.92 nM.
